Source: patent US20240327376A1, “PICOLINAMIDE COMPOUNDS AS SELECTIVE PHD1 INHIBITORS, COMPOSITIONS, AND METHODS OF USE” (Akebia Therapeutics, Inc., priority 2021, published 2024)

The molecules below were run against T1, full-length human PHD1 (selectivity versus full-length human PHD2) (Homo sapiens, UniProt Q96KS0) (assay: TR-FRET assay of PHD enzymes (IC50; Ki by Cheng-Prusoff; selectivity as ratio of Kis)). Settings: ratio of Kis in the PHD1 and PHD2 TR-FRET assays; Ki=IC50/(1+[2-OG]/Km), 1 uM 2-OG.
T1 construct: purchased Active Motif (Carlsbad, CA, USA) 81064; host or cells: baculovirus expression system
Type: biochemical
Source text: Time-resolved fluorescence resonance energy transfer (TR-FRET) assay was utilized to determine the enzymatic half maximal inhibitory concentration (IC50) value of PHD inhibitors against the full-length human prolyl-4-hydroxylase domain (PHD) enzymes, PHD1 and PHD2. The TR-FRET assay was developed based on the specific binding of hydroxylated HIF-1α peptide with the complex formed by VHL, EloB and EloC (VBC), to generate a fluorescent signal. Terbium (Tb)-Donor (monoclonal antibody anti-6His-Tb-cryptate Gold) and D2-acceptor (streptavidin [SA]-D2) of TR-FRET are linked to the VBC complex and to HIF-1a peptide, respectively. The VBC complex binds specifically to the HIF-1a peptide when it is hydroxylated, allowing energy transfer from TR-FRET donor to acceptor (FIG. 1).
TR-FRET Reagents. Monoclonal antibody anti-6His-Tb-cryptate Gold (catalog #61HI2TLA) and streptavidin (SA)-D2 (catalog #610SADLA) were purchased from CisBio International (Bedford, MA, USA).
N-terminus biotinylated HIF-1α C35 synthetic peptide representing amino acids 547 to 581 and including the proline 564 PHD2 hydroxylation site was purchased from California Peptide Research (Salt Lake City, UT, USA).
VBC complex. His-tagged recombinant VHL protein, EloB, EloC complex (His-VBC) was supplied by Axxam (Milan, Italy). Recombinant human VHL (National Center for Biotechnology Information [NCBI] accession number NP_00542.1) contained a His tag at the C-terminus of amino acids 55 to 213 and is referred to as VHL-His. VHL-His was co-expressed in E. coli with full-length human EloB (NCBI accession number Q15370.1) and full-length human EloC (NCBI accession number Q15369.1) and purified by affinity chromatography on a nickel-nitrilotriacetic acid (Ni-NTA) column as the His-VBC complex. Purity (˜80%) was assessed by sodium dodecyl sulfate polyacrylamide gel electrophoresis (SDS-PAGE).
PHD1. Recombinant human PHD1 protein (catalog #81064, Lot #24717001) was purchased from Active Motif (Carlsbad, CA, USA). PHD1 was expressed in a baculovirus expression system as the full-length protein (NCBI accession number NP_542770.2) with an N-terminal FLAG tag (molecular weight 44.9 kDa). Purity (>90%) was assessed by SDS-PAGE.
PHD2. The full-length human PHD2 enzyme was produced with a baculovirus infected insect cell (BIIC) expression system by Beryllium (Bedford, MA, USA). The PHD2 construct contained amino acids 1 to 426 of PHD2 (UniProt Knowledgebase[UniProtKB]/Swiss-Prot accession number Q9GZT9.1), and a His tag and a Tobacco Etch Virus (TEV) protease cleavage site at the N-terminus. The construct was expressed in Sf9 insect cells, purified by Ni-NTA column and digested with TEV protease to remove the His tag.
TR-FRET Assay Procedure. PHD inhibitor compound was preincubated with PHD enzyme in a 10 μL reaction volume in white 384-well Optiplate microplates (catalog #6007290, Perkin Elmer, Waltham, MA, USA). For this, 5 μL of PHD inhibitor compound was serially diluted with dilution buffer (50 mM HEPES [4-(2-hydroxyethyl)-1-piperazineethanesulfonic acid] pH 7.5, 50 mM sodium chloride [NaCl], 0.01% Tween-20, 0.01% purified bovine serum albumin [BSA]) and mixed with 5 μL PHD enzyme mix prepared as a 4× concentrate in the dilution buffer containing PHD enzyme (60 nM PHD1, 20 nM PHD2, 140 nM PHD3), 40 μM ferrous ammonium sulfate (FAS), 4 mM sodium (Na) ascorbate. The plates were incubated for 30 minutes at room temperature without rotation.
Five microliters of the VBC/anti-6His-Tb-cryptate Gold mix prepared as a 4× concentrate in dilution buffer containing 20 nM His-VBC, 1.32 nM monoclonal antibody anti-6His-Tb-cryptate Gold was then added. This step was followed immediately by the addition of […] of the HIF-1a C35 substrate mix prepared as a 4× concentrate in the dilution buffer containing 120 nM biotin-labeled HIF-1a C35, 132 nM SA-D2, 4 μM 2-oxoglutarate (2-OG) to reach a final reaction volume of 20 μL. […]

T1 sequence (Q96KS0 whole entry): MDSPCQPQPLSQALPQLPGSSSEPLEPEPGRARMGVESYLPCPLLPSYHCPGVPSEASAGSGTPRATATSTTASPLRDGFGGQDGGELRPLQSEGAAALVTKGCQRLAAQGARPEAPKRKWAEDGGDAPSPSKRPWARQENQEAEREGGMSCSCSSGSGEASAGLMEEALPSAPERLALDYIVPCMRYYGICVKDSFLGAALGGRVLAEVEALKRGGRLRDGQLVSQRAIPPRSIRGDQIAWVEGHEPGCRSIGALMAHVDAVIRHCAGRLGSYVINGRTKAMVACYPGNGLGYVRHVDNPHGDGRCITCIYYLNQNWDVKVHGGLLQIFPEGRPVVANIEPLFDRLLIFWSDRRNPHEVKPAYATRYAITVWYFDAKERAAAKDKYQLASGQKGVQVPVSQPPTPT

| Compound | Selectivity of PHD1 over PHD2 [fold] |
| --- | --- |
| O=C(NCC1(C(=O)O)CC1)c1ncc(-c2cnn(-c3ccccc3)c2)cc1O [Compound 5, 1-((3-hydroxy-5-(1-phenyl-1H-pyrazol-4-yl)picolinamido)methyl)cyclopropane-1-carboxylic acid] | ~61 |
| O=C(NCC1(C(=O)O)CC1)c1ncc(-c2cccc(Cl)c2)cc1O [Compound 3, 1-((5-(3-chlorophenyl)-3-hydroxypicolinamido)methyl)cyclopropane-1-carboxylic acid] | ~338 |
| O=C(NC[C@H](O)C(=O)O)c1ncc(-c2cccc(Cl)c2)cc1O [Compound 6, (S)-3-(5-(3-chlorophenyl)-3-hydroxypicolinamido)-2-hydroxypropanoic acid] | ~11 |
| O=C(O)CC1(NC(=O)c2ncc(-c3cnn(-c4ccccc4)c3)cc2O)CCC1 [Compound 16, 2-(1-(3-hydroxy-5-(1-phenyl-1H-pyrazol-4-yl)picolinamido)cyclobutyl)acetic acid] | ~2 |
| O=C(NCC1(C(=O)O)CC1)c1ncc(-c2ccc3ccccc3c2)cc1O [Compound 1, 1-((3-hydroxy-5-(naphthalen-2-yl)picolinamido)methyl)cyclopropane-1-carboxylic acid] | ~219 |
| O=C(NC[C@H](O)C(=O)O)c1ncc(-c2cnn(-c3ccccc3)c2)cc1O [Compound 10, (S)-2-hydroxy-3-(3-hydroxy-5-(1-phenyl-1H-pyrazol-4-yl)picolinamido)propanoic acid] | ~29 |
| O=C(NC[C@@H](O)C(=O)O)c1ncc(-c2ccc3ccccc3c2)cc1O [Compound 8, (R)-2-hydroxy-3-(3-hydroxy-5-(naphthalen-2-yl)picolinamido)propanoic acid] | ~100 |
| O=C(NCC1(C(=O)O)CCC1)c1ncc(-c2cccc(Cl)c2)cc1O [Compound 4, 1-((5-(3-chlorophenyl)-3-hydroxypicolinamido)methyl)cyclobutane-1-carboxylic acid] | ~6 |
| O=C(NC[C@@H](O)C(=O)O)c1ncc(-c2cccc(Cl)c2)cc1O [Compound 9, (R)-3-(5-(3-chlorophenyl)-3-hydroxypicolinamido)-2-hydroxypropanoic acid] | ~13 |
| O=C(NCC1(C(=O)O)CCC1)c1ncc(-c2cnn(-c3ccccc3)c2)cc1O [Compound 12, 1-((3-hydroxy-5-(1-phenyl-1H-pyrazol-4-yl)picolinamido)methyl)cyclobutane-1-carboxylic acid] | ~36 |
| O=C(NCC1(C(=O)O)CCCC1)c1ncc(-c2cnn(-c3ccccc3)c2)cc1O [Compound 17, 1-((3-hydroxy-5-(1-phenyl-1H-pyrazol-4-yl)picolinamido)methyl)cyclopentane-1-carboxylic acid] | ~8 |
| O=C(NCC1(C(=O)O)CCOCC1)c1ncc(-c2cnn(-c3ccccc3)c2)cc1O [Compound 14, 4-((3-hydroxy-5-(1-phenyl-1H-pyrazol-4-yl)picolinamido)methyl)tetrahydro-2H-pyran-4-carboxylic acid] | ~51 |
| O=C(NC[C@@H](O)C(=O)O)c1ncc(-c2cnn(-c3ccccc3)c2)cc1O [Compound 11, (R)-2-hydroxy-3-(3-hydroxy-5-(1-phenyl-1H-pyrazol-4-yl)picolinamido)propanoic] | ~42 |
| O=C(NC[C@H](O)C(=O)O)c1ncc(-c2ccc3ccccc3c2)cc1O [Compound 7, (S)-2-hydroxy-3-(3-hydroxy-5-(naphthalen-2-yl)picolinamido)propanoic acid] | ~16 |
| O=C(NCC1(C(=O)O)CCCCC1)c1ncc(-c2cnn(-c3ccccc3)c2)cc1O [Compound 13, 1-((3-hydroxy-5-(1-phenyl-1H-pyrazol-4-yl)picolinamido)methyl)cyclohexane-1-carboxylic acid] | ~2 |
| O=C(O)CC1(NC(=O)c2ncc(-c3cnn(-c4ccccc4)c3)cc2O)CC1 [Compound 15, 2-(1-(3-hydroxy-5-(1-phenyl-1H-pyrazol-4-yl)picolinamido)cyclopropyl)acetic acid] | ~10 |
| O=C(NCC1(C(=O)O)CCC1)c1ncc(-c2ccc3ccccc3c2)cc1O [Compound 2, 1-((3-hydroxy-5-(naphthalen-2-yl)picolinamido)methyl)cyclobutane-1-carboxylic acid] | ~1258 |
